Measured values taken from patent US10231954B2, “Neurodegenerative therapies” (LYTIX BIOPHARMA AS, priority 2014, dated 2019).

Legend:
RIPK2 = RIPK2 (Homo sapiens, UniProt O43353); assay: Kinase profiling RIPK2; type: biochemical; conditions: 100 micromolar inhibitor concentration, 100 is no change; for remaining activity at 100 µM: read-out: residual kinase activity, RIPK2
From the text: (§1) Any value less that 25 is considered to be highly significant inhibition.

MELK = MELK (Homo sapiens, UniProt Q14680); assay: Kinase profiling MELK; type: biochemical; conditions: 100 micromolar inhibitor concentration, 100 is no change; for remaining activity at 100 µM: read-out: residual kinase activity, MELK
From the text: as §1

p38b MAPK = p38b MAPK (Homo sapiens, UniProt Q15759); assay: Kinase profiling p38b MAPK; type: biochemical; conditions: 100 micromolar inhibitor concentration, 100 is no change; for remaining activity at 100 µM: read-out: residual kinase activity, p38b MAPK
Chain of p38b MAPK (Q15759 whole entry): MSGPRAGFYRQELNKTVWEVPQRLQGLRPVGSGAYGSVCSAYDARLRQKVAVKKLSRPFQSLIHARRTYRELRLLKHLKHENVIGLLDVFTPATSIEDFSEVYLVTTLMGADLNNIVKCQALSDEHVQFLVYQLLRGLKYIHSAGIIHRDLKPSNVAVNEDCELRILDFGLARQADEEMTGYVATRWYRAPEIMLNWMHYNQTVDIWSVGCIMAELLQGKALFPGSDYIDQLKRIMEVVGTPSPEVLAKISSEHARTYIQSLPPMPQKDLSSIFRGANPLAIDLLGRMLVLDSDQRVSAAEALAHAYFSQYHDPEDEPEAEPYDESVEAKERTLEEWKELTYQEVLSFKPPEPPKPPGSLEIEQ
From the text: as §1

IGF-1R = IGF-1R (Homo sapiens, UniProt P08069); assay: Kinase profiling IGF-1R; type: biochemical; conditions: 100 micromolar inhibitor concentration, 100 is no change; for remaining activity at 100 µM: read-out: residual kinase activity, IGF-1R
From the text: as §1

CAMKKb = CAMKKb (Homo sapiens, UniProt Q96RR4); assay: Kinase profiling CAMKKb; type: biochemical; conditions: 100 micromolar inhibitor concentration, 100 is no change; for remaining activity at 100 µM: read-out: residual kinase activity, CAMKKb
From the text: as §1

HER4 = HER4 (Homo sapiens, UniProt Q15303); assay: Kinase profiling HER4; type: biochemical; conditions: 100 micromolar inhibitor concentration, 100 is no change; for remaining activity at 100 µM: read-out: residual kinase activity, HER4
From the text: as §1

MKK6 = target: T1, MKK6 (Homo sapiens, UniProt P52564); assay: Kinase profiling MKK6; type: biochemical; conditions: 100 micromolar inhibitor concentration, 100 is no change; for remaining activity at 100 µM: read-out: residual kinase activity, MKK6
T1 sequence (P52564 1-334): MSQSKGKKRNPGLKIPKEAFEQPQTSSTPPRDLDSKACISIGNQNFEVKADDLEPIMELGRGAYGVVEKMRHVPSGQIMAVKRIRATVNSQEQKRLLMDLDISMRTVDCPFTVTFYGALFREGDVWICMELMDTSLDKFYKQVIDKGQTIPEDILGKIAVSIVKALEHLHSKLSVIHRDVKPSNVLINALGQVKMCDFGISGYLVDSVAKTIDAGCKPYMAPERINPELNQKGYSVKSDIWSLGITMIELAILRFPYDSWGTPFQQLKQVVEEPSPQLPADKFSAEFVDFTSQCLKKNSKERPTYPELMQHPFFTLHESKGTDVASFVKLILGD
From the text: as §1

S6K1 = S6K1 (Homo sapiens, UniProt P23443); assay: Kinase profiling S6K1; type: biochemical; conditions: 100 micromolar inhibitor concentration, 100 is no change; for remaining activity at 100 µM: read-out: residual kinase activity, S6K1
Chain of S6K1 (P23443 whole entry, species assumed): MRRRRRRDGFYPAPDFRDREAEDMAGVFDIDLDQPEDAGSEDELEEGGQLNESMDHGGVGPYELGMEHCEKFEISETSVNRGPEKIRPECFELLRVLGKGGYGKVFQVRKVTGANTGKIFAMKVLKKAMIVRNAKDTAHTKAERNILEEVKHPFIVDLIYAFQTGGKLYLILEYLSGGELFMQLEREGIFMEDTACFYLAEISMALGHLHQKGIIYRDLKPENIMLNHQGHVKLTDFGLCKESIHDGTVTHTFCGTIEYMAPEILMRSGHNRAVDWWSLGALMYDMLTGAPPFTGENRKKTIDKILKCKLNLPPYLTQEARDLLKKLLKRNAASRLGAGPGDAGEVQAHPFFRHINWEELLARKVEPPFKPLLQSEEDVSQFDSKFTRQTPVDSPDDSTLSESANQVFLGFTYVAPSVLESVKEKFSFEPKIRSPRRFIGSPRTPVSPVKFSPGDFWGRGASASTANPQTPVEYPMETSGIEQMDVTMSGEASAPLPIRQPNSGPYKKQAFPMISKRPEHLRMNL
From the text: as §1

PLK1 = PLK1 (Homo sapiens, UniProt P53350); assay: Kinase profiling PLK1; type: biochemical; conditions: 100 micromolar inhibitor concentration, 100 is no change; for remaining activity at 100 µM: read-out: residual kinase activity, PLK1
From the text: as §1

BTK = BTK (Homo sapiens, UniProt Q06187); assay: Kinase profiling BTK; type: biochemical; conditions: 100 micromolar inhibitor concentration, 100 is no change; for remaining activity at 100 µM: read-out: residual kinase activity, BTK
From the text: as §1

ROCK 2 = ROCK 2 (Homo sapiens, UniProt O75116); assay: Kinase profiling ROCK 2; type: biochemical; conditions: 100 micromolar inhibitor concentration, 100 is no change; for remaining activity at 100 µM: read-out: residual kinase activity, ROCK 2
Chain of ROCK 2 (O75116 whole entry, species assumed): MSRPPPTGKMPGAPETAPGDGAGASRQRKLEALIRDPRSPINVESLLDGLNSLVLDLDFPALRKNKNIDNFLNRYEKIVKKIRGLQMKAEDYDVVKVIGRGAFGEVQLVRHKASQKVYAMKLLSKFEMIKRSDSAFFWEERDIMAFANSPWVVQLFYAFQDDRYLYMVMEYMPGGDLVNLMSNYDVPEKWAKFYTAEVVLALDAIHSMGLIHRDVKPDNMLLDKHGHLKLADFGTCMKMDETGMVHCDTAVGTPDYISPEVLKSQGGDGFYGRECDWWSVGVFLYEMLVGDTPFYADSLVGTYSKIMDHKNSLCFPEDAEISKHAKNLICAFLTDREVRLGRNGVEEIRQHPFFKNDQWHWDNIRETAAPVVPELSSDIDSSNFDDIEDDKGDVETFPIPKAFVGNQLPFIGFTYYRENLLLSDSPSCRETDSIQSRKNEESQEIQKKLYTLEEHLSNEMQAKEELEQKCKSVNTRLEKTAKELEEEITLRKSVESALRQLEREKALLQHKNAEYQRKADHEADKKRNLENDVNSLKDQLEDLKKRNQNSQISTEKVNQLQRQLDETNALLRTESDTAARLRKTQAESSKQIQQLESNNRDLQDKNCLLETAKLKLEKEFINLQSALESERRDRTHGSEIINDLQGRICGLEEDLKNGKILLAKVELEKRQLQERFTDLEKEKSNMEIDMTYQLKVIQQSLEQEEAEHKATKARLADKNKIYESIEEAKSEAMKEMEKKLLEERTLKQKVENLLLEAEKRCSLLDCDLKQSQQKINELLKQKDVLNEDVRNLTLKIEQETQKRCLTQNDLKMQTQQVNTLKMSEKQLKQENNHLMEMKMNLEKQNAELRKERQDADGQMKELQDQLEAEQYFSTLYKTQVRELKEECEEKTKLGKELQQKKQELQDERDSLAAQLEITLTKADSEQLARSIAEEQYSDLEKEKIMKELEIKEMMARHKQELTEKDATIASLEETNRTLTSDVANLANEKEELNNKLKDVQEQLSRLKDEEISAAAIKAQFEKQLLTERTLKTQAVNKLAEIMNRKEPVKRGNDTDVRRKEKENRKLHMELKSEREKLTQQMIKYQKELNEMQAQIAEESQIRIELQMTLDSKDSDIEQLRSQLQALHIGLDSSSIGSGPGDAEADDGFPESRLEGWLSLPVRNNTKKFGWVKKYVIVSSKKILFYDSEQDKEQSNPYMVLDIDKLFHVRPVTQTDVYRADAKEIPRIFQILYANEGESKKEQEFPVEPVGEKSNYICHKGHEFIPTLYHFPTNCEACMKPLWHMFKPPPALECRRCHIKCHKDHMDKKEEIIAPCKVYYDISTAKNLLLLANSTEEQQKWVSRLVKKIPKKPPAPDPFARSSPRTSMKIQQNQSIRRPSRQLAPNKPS
From the text: as §1

RSK1 = RSK1 (Homo sapiens, UniProt Q15418); assay: Kinase profiling RSK1; type: biochemical; conditions: 100 micromolar inhibitor concentration, 100 is no change; for remaining activity at 100 µM: read-out: residual kinase activity, RSK1
Chain of RSK1 (Q15418 whole entry, species assumed): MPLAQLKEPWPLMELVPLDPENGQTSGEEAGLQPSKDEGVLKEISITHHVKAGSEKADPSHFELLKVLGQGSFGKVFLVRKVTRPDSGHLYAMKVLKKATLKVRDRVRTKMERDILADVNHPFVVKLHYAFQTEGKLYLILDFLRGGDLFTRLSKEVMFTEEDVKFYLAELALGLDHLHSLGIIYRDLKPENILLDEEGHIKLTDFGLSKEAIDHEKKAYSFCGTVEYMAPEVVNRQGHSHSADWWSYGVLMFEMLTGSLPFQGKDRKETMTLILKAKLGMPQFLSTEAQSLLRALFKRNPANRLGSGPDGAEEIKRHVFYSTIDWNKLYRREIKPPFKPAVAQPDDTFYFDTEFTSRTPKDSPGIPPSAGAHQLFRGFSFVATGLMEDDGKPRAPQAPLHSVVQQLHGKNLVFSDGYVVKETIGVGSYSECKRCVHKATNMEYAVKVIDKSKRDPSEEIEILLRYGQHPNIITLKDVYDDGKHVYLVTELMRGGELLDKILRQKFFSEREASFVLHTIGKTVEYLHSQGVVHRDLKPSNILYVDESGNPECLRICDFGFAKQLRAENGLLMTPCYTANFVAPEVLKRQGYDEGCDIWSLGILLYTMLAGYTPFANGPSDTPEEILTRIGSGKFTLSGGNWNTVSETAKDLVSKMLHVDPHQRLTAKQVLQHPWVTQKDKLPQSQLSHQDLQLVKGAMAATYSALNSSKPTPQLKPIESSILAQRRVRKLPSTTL
From the text: as §1

PKCa = PKCa (Homo sapiens, UniProt P17252); assay: Kinase profiling PKCa; type: biochemical; conditions: 100 micromolar inhibitor concentration, 100 is no change; for remaining activity at 100 µM: read-out: residual kinase activity, PKCa
From the text: as §1

PDK1 = target: T2, PDK1 (Homo sapiens, UniProt O15530); assay: Kinase profiling PDK1; type: biochemical; conditions: 100 micromolar inhibitor concentration, 100 is no change; for remaining activity at 100 µM: read-out: residual kinase activity, PDK1
T2 sequence (O15530 1-556): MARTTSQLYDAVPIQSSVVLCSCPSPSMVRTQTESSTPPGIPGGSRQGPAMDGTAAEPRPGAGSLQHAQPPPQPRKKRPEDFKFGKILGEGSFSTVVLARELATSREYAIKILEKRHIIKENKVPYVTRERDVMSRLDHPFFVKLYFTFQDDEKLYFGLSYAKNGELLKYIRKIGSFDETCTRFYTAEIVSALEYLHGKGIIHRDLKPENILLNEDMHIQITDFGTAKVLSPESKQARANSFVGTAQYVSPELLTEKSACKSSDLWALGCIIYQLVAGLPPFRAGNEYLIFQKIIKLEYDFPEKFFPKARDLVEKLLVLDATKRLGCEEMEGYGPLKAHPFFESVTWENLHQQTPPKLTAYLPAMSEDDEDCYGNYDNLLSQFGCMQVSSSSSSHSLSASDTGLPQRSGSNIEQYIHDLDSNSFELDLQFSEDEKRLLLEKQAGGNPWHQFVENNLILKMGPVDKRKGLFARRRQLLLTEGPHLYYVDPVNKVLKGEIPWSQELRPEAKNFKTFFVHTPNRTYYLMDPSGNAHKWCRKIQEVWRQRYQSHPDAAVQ
From the text: as §1

PRK2 = PRK2 (Homo sapiens, UniProt Q16513); assay: Kinase profiling PRK2; type: biochemical; conditions: 100 micromolar inhibitor concentration, 100 is no change; for remaining activity at 100 µM: read-out: residual kinase activity, PRK2
From the text: as §1

PIM1 = PIM1 (Homo sapiens, UniProt P11309); assay: Kinase profiling PIM1; type: biochemical; conditions: 100 micromolar inhibitor concentration, 100 is no change; for remaining activity at 100 µM: read-out: residual kinase activity, PIM1
From the text: as §1

MKK2 = MKK2 (Homo sapiens, UniProt P36507); assay: Kinase profiling MKK2; type: biochemical; conditions: 100 micromolar inhibitor concentration, 100 is no change; for remaining activity at 100 µM: read-out: residual kinase activity, MKK2
Chain of MKK2 (P36507 whole entry, species assumed): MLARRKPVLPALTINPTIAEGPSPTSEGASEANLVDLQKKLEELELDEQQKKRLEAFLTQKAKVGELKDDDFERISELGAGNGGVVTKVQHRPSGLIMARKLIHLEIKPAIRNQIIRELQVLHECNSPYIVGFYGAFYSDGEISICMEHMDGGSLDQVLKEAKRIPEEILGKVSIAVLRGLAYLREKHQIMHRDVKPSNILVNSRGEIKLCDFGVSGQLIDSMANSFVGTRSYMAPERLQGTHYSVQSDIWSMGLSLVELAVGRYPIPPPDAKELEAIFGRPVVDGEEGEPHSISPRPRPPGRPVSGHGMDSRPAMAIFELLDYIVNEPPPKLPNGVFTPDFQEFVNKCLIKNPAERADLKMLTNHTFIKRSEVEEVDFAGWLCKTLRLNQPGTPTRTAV
From the text: as §1

AMPK (hum) = assay: Kinase profiling AMPK (hum); type: biochemical, human; conditions: 100 micromolar inhibitor concentration; 100 is no change
From the text: as §1

PKBa = PKBa (Homo sapiens, UniProt P31749); assay: Kinase profiling PKBa; type: biochemical; conditions: for remaining activity at 100 µM: read-out: residual kinase activity, PKBa; for residual kinase activity, PKBa: 100 micromolar inhibitor concentration, 100 is no change
Chain of PKBa (P31749 whole entry): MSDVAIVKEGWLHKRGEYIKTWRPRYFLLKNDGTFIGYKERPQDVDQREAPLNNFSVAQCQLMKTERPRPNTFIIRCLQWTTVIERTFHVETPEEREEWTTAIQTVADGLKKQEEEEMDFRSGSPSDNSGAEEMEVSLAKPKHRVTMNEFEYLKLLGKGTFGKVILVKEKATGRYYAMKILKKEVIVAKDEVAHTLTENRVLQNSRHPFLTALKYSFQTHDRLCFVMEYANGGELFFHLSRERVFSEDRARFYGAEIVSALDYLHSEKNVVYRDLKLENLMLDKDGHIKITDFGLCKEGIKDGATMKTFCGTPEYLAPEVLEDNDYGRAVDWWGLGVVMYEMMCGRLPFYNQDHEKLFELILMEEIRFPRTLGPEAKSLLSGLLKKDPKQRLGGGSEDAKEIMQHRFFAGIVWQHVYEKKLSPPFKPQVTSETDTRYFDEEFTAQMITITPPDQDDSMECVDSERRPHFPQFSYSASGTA
From the text: as §1

JNK1 = JNK1 (Homo sapiens, UniProt P45983); assay: Kinase profiling JNK1; type: biochemical; conditions: 100 micromolar inhibitor concentration, 100 is no change; for remaining activity at 100 µM: read-out: residual kinase activity, JNK1
Chain of JNK1 (P45983 whole entry, species assumed): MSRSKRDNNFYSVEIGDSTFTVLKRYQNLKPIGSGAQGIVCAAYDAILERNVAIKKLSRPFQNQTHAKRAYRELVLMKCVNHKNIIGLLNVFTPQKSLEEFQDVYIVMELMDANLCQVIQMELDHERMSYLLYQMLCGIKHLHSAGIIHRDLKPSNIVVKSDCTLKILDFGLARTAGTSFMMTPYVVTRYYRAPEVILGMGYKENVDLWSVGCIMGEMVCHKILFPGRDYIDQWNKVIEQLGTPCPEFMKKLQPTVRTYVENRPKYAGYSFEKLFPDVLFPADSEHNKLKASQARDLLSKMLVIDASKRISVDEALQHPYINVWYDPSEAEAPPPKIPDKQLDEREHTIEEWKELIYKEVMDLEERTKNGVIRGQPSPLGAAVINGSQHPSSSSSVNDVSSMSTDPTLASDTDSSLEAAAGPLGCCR
From the text: as §1

EPH-A2 = EPH-A2 (Homo sapiens, UniProt P29317); assay: Kinase profiling EPH-A2; type: biochemical; conditions: 100 micromolar inhibitor concentration, 100 is no change; for remaining activity at 100 µM: read-out: residual kinase activity, EPH-A2
From the text: as §1

PKA = PKA (Homo sapiens, UniProt P17612); assay: Kinase profiling PKA; type: biochemical; conditions: 100 micromolar inhibitor concentration, 100 is no change; for remaining activity at 100 µM: read-out: residual kinase activity, PKA
From the text: as §1

Compound `CC(=O)Nc1nc2cc(C(F)(F)F)ccc2s1` [Compound 03-73] has a remaining activity at 100 µM (RIPK2) of 48%, a remaining activity at 100 µM (MELK) of 91% and a remaining activity at 100 µM (p38b MAPK) of 97%. The remaining activity at 100 µM (IGF-1R) was 77%, the remaining activity at 100 µM (CAMKKb) was 65% and the remaining activity at 100 µM (HER4) was 110%. For the same compound, the remaining activity at 100 µM (MKK6) was 120%, the remaining activity at 100 µM (S6K1) was 77% and the remaining activity at 100 µM (PLK1) was 91%. The remaining activity at 100 µM (BTK) was 93%, the remaining activity at 100 µM (ROCK 2) was 83% and the remaining activity at 100 µM (RSK1) was 89%. It also gave a remaining activity at 100 µM (PKCa) of 111%, a remaining activity at 100 µM (PDK1) of 105% and a remaining activity at 100 µM (PRK2) of 91%. The remaining activity at 100 µM (PIM1) was 10%, the remaining activity at 100 µM (MKK2) was 98% and the “residual kinase activity, AMPK (hum)” value (AMPK (hum)) was 62. The remaining activity at 100 µM (PKBa) was 106%, the remaining activity at 100 µM (JNK1) was 120% and the remaining activity at 100 µM (EPH-A2) was 99%. For the same compound, the remaining activity at 100 µM (PKA) was 124%.
In the case of `CC(=O)Nc1nc2cc(C)ccc2s1` [Compound 03-76], the “residual kinase activity, RIPK2” value (RIPK2) is reported as 60, the “residual kinase activity, MELK” value (MELK) is reported as 58 and the “residual kinase activity, p38b MAPK” value (p38b MAPK) is reported as 83. The “residual kinase activity, IGF-1R” value (IGF-1R) was 75, the “residual kinase activity, CAMKKb” value (CAMKKb) was 71 and the “residual kinase activity, HER4” value (HER4) was 85. For the same compound, the “residual kinase activity, MKK6” value (MKK6) was 113, the “residual kinase activity, S6K1” value (S6K1) was 77 and the “residual kinase activity, PLK1” value (PLK1) was 90. The “residual kinase activity, BTK” value (BTK) was 92, the “residual kinase activity, ROCK 2” value (ROCK 2) was 79 and the “residual kinase activity, RSK1” value (RSK1) was 78. The “residual kinase activity, PKCa” value (PKCa) was 94, the “residual kinase activity, PDK1” value (PDK1) was 93 and the “residual kinase activity, PRK2” value (PRK2) was 84. For the same compound, the “residual kinase activity, PIM1” value (PIM1) was 21, the “residual kinase activity, MKK2” value (MKK2) was 155 and the “residual kinase activity, AMPK (hum)” value (AMPK (hum)) was 69. The “residual kinase activity, PKBa” value (PKBa) was 104, the “residual kinase activity, JNK1” value (JNK1) was 97 and the “residual kinase activity, EPH-A2” value (EPH-A2) was 93. For the same compound, the “residual kinase activity, PKA” value (PKA) was 105.
Work on `CC(=O)Nc1nc2cc(F)ccc2s1` [Compound 03-77] yielded a remaining activity at 100 µM (RIPK2) of 64%, a remaining activity at 100 µM (MELK) of 67% and a remaining activity at 100 µM (p38b MAPK) of 79%. The remaining activity at 100 µM (IGF-1R) was 58%, the remaining activity at 100 µM (CAMKKb) was 74% and the remaining activity at 100 µM (HER4) was 92%. The remaining activity at 100 µM (MKK6) was 118%, the remaining activity at 100 µM (S6K1) was 48% and the remaining activity at 100 µM (PLK1) was 78%. The remaining activity at 100 µM (BTK) was 105%, the remaining activity at 100 µM (ROCK 2) was 37% and the remaining activity at 100 µM (RSK1) was 72%. It also gave a remaining activity at 100 µM (PKCa) of 101%, a remaining activity at 100 µM (PDK1) of 91% and a remaining activity at 100 µM (PRK2) of 74%. The remaining activity at 100 µM (PIM1) was 19%, the remaining activity at 100 µM (MKK2) was 101% and the “residual kinase activity, AMPK (hum)” value (AMPK (hum)) was 80. For the same compound, the remaining activity at 100 µM (PKBa) was 95%, the remaining activity at 100 µM (JNK1) was 80% and the remaining activity at 100 µM (EPH-A2) was 106%. The remaining activity at 100 µM (PKA) was 95%.
With `O=C(Nc1nc2ccc(O)cc2s1)c1ccncc1` [Compound 08-42] the “residual kinase activity, RIPK2” value (RIPK2) was 30, the “residual kinase activity, MELK” value (MELK) was 22 and the “residual kinase activity, p38b MAPK” value (p38b MAPK) was 86. The “residual kinase activity, IGF-1R” value (IGF-1R) was 88, the “residual kinase activity, CAMKKb” value (CAMKKb) was 68 and the “residual kinase activity, HER4” value (HER4) was 40. For the same compound, the “residual kinase activity, MKK6” value (MKK6) was 101, the “residual kinase activity, S6K1” value (S6K1) was 38 and the “residual kinase activity, PLK1” value (PLK1) was 74. For the same compound, the “residual kinase activity, BTK” value (BTK) was 59, the “residual kinase activity, ROCK 2” value (ROCK 2) was 43 and the “residual kinase activity, RSK1” value (RSK1) was 47. For the same compound, the “residual kinase activity, PKCa” value (PKCa) was 81, the “residual kinase activity, PDK1” value (PDK1) was 83 and the “residual kinase activity, PRK2” value (PRK2) was 44. For the same compound, the “residual kinase activity, PIM1” value (PIM1) was 59, the “residual kinase activity, MKK2” value (MKK2) was 72 and the “residual kinase activity, AMPK (hum)” value (AMPK (hum)) was 65. The “residual kinase activity, PKBa” value (PKBa) was 90, the “residual kinase activity, JNK1” value (JNK1) was 99 and the “residual kinase activity, EPH-A2” value (EPH-A2) was 77. For the same compound, the “residual kinase activity, PKA” value (PKA) was 91.
